Tests used:
Homo sapiens [1] = species: Homo sapiens; experiment: Selectivity ratio of Ki for displacement of [3H]NMS from human M1 AChR expressed in CHO cell membranes to Ki for displacement of [3H]NMS from human M5 AChR expressed in CHO cell membranes
Homo sapiens [2] = species: Homo sapiens; experiment: Selectivity ratio of Ki for displacement of [3H]NMS from human M2 AChR expressed in CHO cell membranes to Ki for displacement of [3H]NMS from human M3 AChR expressed in CHO cell membranes

Compound: O=C(OC1CN2CCC1CC2)N(CCc1ccc(F)cc1)c1ccccc1 (racemic)
- Ratio Ki (Homo sapiens [1]): 1.1
- Ratio Ki (Homo sapiens [2]): 5

Source: ChEMBL document CHEMBL4371071, “Muscarinic agonist, (±)-quinuclidin-3-yl-(4-fluorophenethyl)(phenyl)carbamate: High affinity, but low subtype selectivity for human M1 - M5 muscarinic acetylcholine receptors” (Bioorg Med Chem Lett, 2019)
